Common to all, as to experiment: relative viability (nuclei count vs DMSO), 5 days (fraction); higher = more cells survive
Compound in the test “RAF265 + Foretinib”: Cn1c(Nc2ccc(C(F)(F)F)cc2)nc2cc(Oc3ccnc(-c4ncc(C(F)(F)F)[nH]4)c3)ccc21 [RAF265] + COc1cc2c(Oc3ccc(NC(=O)C4(C(=O)Nc5ccc(F)cc5)CC4)cc3F)ccnc2cc1OCCCN1CCOCC1 [Foretinib] (partner 0.25 µM)
In short, it runs like this: (§1)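 Lung cancer cell lines were pin-tool dosed in 1536-well plates on the day after seeding, with either a lone drug or a fixed anchor-drug dose plus five library-drug doses (not always all listed) in √10 steps. Nuclei were counted on 4× images after 5 days. Relative viability is the ratio of treated-well to vehicle-well nuclei counts, with each value a median of duplicate plates.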

Compound in the test “RAF265 + Pemetrexed”: Cn1c(Nc2ccc(C(F)(F)F)cc2)nc2cc(Oc3ccnc(-c4ncc(C(F)(F)F)[nH]4)c3)ccc21 [RAF265] + Nc1nc2[nH]cc(CCc3ccc(C(=O)N[C@@H](CCC(=O)O)C(=O)O)cc3)c2c(=O)[nH]1 [Pemetrexed] (partner 0.2 µM)
In short, it runs like this:
as §1

Compound in the test “RAF265 + Dasatinib”: Cn1c(Nc2ccc(C(F)(F)F)cc2)nc2cc(Oc3ccnc(-c4ncc(C(F)(F)F)[nH]4)c3)ccc21 [RAF265] + Cc1nc(Nc2ncc(C(=O)Nc3c(C)cccc3Cl)s2)cc(N2CCN(CCO)CC2)n1 [Dasatinib] (partner 0.075 µM)
In short, it runs like this:
as §1

Compound in the test “RAF265 + Navitoclax”: Cn1c(Nc2ccc(C(F)(F)F)cc2)nc2cc(Oc3ccnc(-c4ncc(C(F)(F)F)[nH]4)c3)ccc21 [RAF265] + CC1(C)CCC(c2ccc(Cl)cc2)=C(CN2CCN(c3ccc(C(=O)NS(=O)(=O)c4ccc(N[C@H](CCN5CCOCC5)CSc5ccccc5)c(S(=O)(=O)C(F)(F)F)c4)cc3)CC2)C1 [Navitoclax] (partner 0.5 µM)
In short, it runs like this: as §1

On to NCI-H2347, for which the relative viability with RAF265 + Foretinib (first compound 0.01 µM) turned out to be 0.93; with RAF265 + Foretinib (first compound 0.03162 µM), 0.971; in the test with RAF265 + Foretinib (first compound 0.1 µM) it was 0.81; with RAF265 + Foretinib (first compound 0.3162 µM) it was 0.592; in the test with RAF265 + Foretinib (first compound 1 µM), 0.803; with RAF265 + Pemetrexed (first compound 0.01 µM), 0.392. For the same cell line, the relative viability with RAF265 + Pemetrexed (first compound 0.03162 µM) came to 0.371; in the test with RAF265 + Pemetrexed (first compound 0.1 µM), 0.406; with RAF265 + Pemetrexed (first compound 0.3162 µM) it was 0.446; with RAF265 + Pemetrexed (first compound 1 µM), 0.351; with RAF265 + Dasatinib (first compound 0.01 µM) it was 0.358; in the test with RAF265 + Dasatinib (first compound 0.03162 µM), 0.331. In addition, the relative viability with RAF265 + Dasatinib (first compound 0.1 µM) was found to be 0.341; with RAF265 + Dasatinib (first compound 0.3162 µM) it was 0.213; with RAF265 + Dasatinib (first compound 1 µM), 0.237; with RAF265 + Navitoclax (first compound 0.01 µM), 1.03; with RAF265 + Navitoclax (first compound 0.03162 µM) it was 0.786; with RAF265 + Navitoclax (first compound 0.1 µM), 0.864. For the same cell line, the relative viability with RAF265 + Navitoclax (first compound 0.3162 µM) was determined as 0.456; with RAF265 + Navitoclax (first compound 1 µM), 0.467.

With NCI-H2405, the relative viability was 1.03 with RAF265 + Foretinib (first compound 0.01 µM); 1.01 in the test with RAF265 + Foretinib (first compound 0.03162 µM); 1 with RAF265 + Foretinib (first compound 0.1 µM); 0.935 in the test with RAF265 + Foretinib (first compound 0.3162 µM); 0.701 in the test with RAF265 + Foretinib (first compound 1 µM); 1.14 with RAF265 + Pemetrexed (first compound 0.01 µM). Further, the relative viability with RAF265 + Pemetrexed (first compound 0.03162 µM) was 0.922; in the test with RAF265 + Pemetrexed (first compound 0.1 µM), 0.91; with RAF265 + Pemetrexed (first compound 0.3162 µM), 0.662; in the test with RAF265 + Pemetrexed (first compound 1 µM), 0.516; with RAF265 + Dasatinib (first compound 0.01 µM), 0.242; with RAF265 + Dasatinib (first compound 0.03162 µM), 0.194. In addition, the relative viability was 0.191 with RAF265 + Dasatinib (first compound 0.1 µM); 0.159 with RAF265 + Dasatinib (first compound 0.3162 µM); 0.193 with RAF265 + Dasatinib (first compound 1 µM); 0.984 in the test with RAF265 + Navitoclax (first compound 0.01 µM); 0.86 with RAF265 + Navitoclax (first compound 0.03162 µM); 0.973 with RAF265 + Navitoclax (first compound 0.1 µM). In addition, the relative viability with RAF265 + Navitoclax (first compound 0.3162 µM) came out at 0.909; with RAF265 + Navitoclax (first compound 1 µM) it was 0.335.

For the cell line NCI-H3122, the relative viability with RAF265 + Foretinib (first compound 0.01 µM) came out at 0.963; with RAF265 + Foretinib (first compound 0.03162 µM), 1; in the test with RAF265 + Foretinib (first compound 0.1 µM), 1; with RAF265 + Foretinib (first compound 0.3162 µM), 0.953; in the test with RAF265 + Foretinib (first compound 1 µM), 0.635; with RAF265 + Pemetrexed (first compound 0.01 µM), 0.197. The relative viability with RAF265 + Pemetrexed (first compound 0.03162 µM) was found to be 0.21; with RAF265 + Pemetrexed (first compound 0.1 µM), 0.198; in the test with RAF265 + Pemetrexed (first compound 0.3162 µM) it was 0.209; with RAF265 + Pemetrexed (first compound 1 µM) it was 0.195; in the test with RAF265 + Dasatinib (first compound 0.01 µM), 0.463; in the test with RAF265 + Dasatinib (first compound 0.03162 µM), 0.937. In addition, the relative viability with RAF265 + Dasatinib (first compound 0.1 µM) stood at 0.904; in the test with RAF265 + Dasatinib (first compound 0.3162 µM) it was 0.669; with RAF265 + Dasatinib (first compound 1 µM), 0.521; in the test with RAF265 + Navitoclax (first compound 0.01 µM), 1; with RAF265 + Navitoclax (first compound 0.03162 µM), 1.08; with RAF265 + Navitoclax (first compound 0.1 µM) it was 1.01. Moreover, the values for the relative viability with RAF265 + Navitoclax (first compound 0.3162 µM) and in the test with RAF265 + Navitoclax (first compound 1 µM) were 1.04 and 0.967, respectively.

On to PC-3 [JPC-3], for which the relative viability worked out at 1.04 with RAF265 + Foretinib (first compound 0.01 µM); 1.07 in the test with RAF265 + Foretinib (first compound 0.03162 µM); 1.12 in the test with RAF265 + Foretinib (first compound 0.1 µM); 0.595 in the test with RAF265 + Foretinib (first compound 1 µM); 1.17 with RAF265 + Pemetrexed (first compound 0.01 µM); 1.11 in the test with RAF265 + Pemetrexed (first compound 0.03162 µM). In addition, the relative viability in the test with RAF265 + Pemetrexed (first compound 0.1 µM) was 1.24; with RAF265 + Pemetrexed (first compound 0.3162 µM) it was 0.42; with RAF265 + Pemetrexed (first compound 1 µM), 0.621; in the test with RAF265 + Dasatinib (first compound 0.01 µM), 0.985; in the test with RAF265 + Dasatinib (first compound 0.03162 µM), 0.908; with RAF265 + Dasatinib (first compound 0.1 µM), 1. The relative viability with RAF265 + Dasatinib (first compound 1 µM) is 0.696; with RAF265 + Navitoclax (first compound 0.01 µM), 0.735; with RAF265 + Navitoclax (first compound 0.03162 µM), 0.754; with RAF265 + Navitoclax (first compound 0.1 µM) it was 0.893; in the test with RAF265 + Navitoclax (first compound 0.3162 µM), 0.304; with RAF265 + Navitoclax (first compound 1 µM), 0.556.

Take PC-14: the relative viability is 0.969 with RAF265 + Foretinib (first compound 0.01 µM); 1.01 with RAF265 + Foretinib (first compound 0.03162 µM); 0.928 with RAF265 + Foretinib (first compound 0.1 µM); 0.817 in the test with RAF265 + Foretinib (first compound 1 µM); 0.115 with RAF265 + Pemetrexed (first compound 0.01 µM); 0.138 in the test with RAF265 + Pemetrexed (first compound 0.03162 µM). Further, the relative viability came out at 0.144 with RAF265 + Pemetrexed (first compound 0.1 µM); 0.158 in the test with RAF265 + Pemetrexed (first compound 1 µM); 0.262 with RAF265 + Dasatinib (first compound 0.01 µM); 0.274 in the test with RAF265 + Dasatinib (first compound 0.03162 µM); 0.241 with RAF265 + Dasatinib (first compound 0.1 µM); 0.0905 in the test with RAF265 + Dasatinib (first compound 1 µM). Also, the relative viability is 0.955 with RAF265 + Navitoclax (first compound 0.01 µM); 1.03 in the test with RAF265 + Navitoclax (first compound 0.03162 µM); 1.03 with RAF265 + Navitoclax (first compound 0.1 µM); 0.985 with RAF265 + Navitoclax (first compound 0.3162 µM); 0.854 with RAF265 + Navitoclax (first compound 1 µM).

The record behind these values is the supplement of paper PMC10307832.
